Source: patent US20150216992A1, “EXTENDED RELEASE COMPOSITIONS OF AN AMINOALKYL NITRATE” (CARDIOLYNX AG, priority 2012, published 2015)

Experiments:
L-NAME treated SHR rats = test: Rat model for pharmacological activity using blood pressure as a marker; format: in vivo; settings: AEN tosylate 0.5 mg/kg/h infused, valsartan 5 mg/kg single daily dose; for effect on blood pressure: after 1 and 2 weeks
Procedure: FIG. 5: Pharmacological activity of AEN tosylate, valsartan and AEN tosylate/valsartan combination on blood pressure in L-NAME treated SHR rats.
Column 1: AEN tosylate (0.5 mg/kg/h), column 2: valsartan (single dose 5 mg/kg), column 3: AEN tosylate (0.5 mg/kg/h) plus valsartan (single daily dose 5 mg/kg).
Hatched bars: blood pressure lowering versus control after 1 week, black solid bars after 2 weeks. Vertical axis: reduction in blood pressure in mm Hg
SHR rats were treated with L-NAME to increase blood pressure. Following treatment with L-NAME rats were treated continuously for two weeks with either AEN tosylate (1) with a continuously infused dose (using an osmotic pump) of 0.5 mg/kg/h (column 1 in FIG. 5), valsartan at 5 mg/kg, single daily dose (column 2 in FIG. 5) or AEN tosylate plus valsartan (combined doses, group 3 in FIG. 5). Effects on blood pressure were measured after 1 week and after 2 weeks of treatment.

[1] = in vivo; cited from earlier work
[2] = in vivo; cited from earlier work; remark: listed apart in the source

SMILES | effect on blood pressure (L-NAME treated SHR rats) | half-live [1] | development of nitrate tolerance [2] | NO-tolerance induction (L-NAME treated SHR rats; two weeks continuous treatment)
CCCCC(=O)N(Cc1ccc(-c2ccccc2-c2nnn[nH]2)cc1)[C@H](C(=O)O)C(C)C [valsartan] | lowered blood pressure | – | – | –
NCCO[N+](=O)[O-] [AEN, 2-aminoethyl nitrate] | – | approx. 2 hours | no development of nitrate tolerance | –
Cc1ccc(S(=O)(=O)O)cc1.NCCO[N+](=O)[O-] [AEN tosylate, 2-aminoethylnitrate (aen) tosylate] | continued pharmacological activity | – | – | without showing signs of NO-tolerance induction
